Read-outs that look alike come from different tables or passages of the source.
Biological target: T1, human CRF receptors (Homo sapiens, UniProt P34998)
T1 construct: expressed in transfected cells
T1 sequence (P34998 24-415): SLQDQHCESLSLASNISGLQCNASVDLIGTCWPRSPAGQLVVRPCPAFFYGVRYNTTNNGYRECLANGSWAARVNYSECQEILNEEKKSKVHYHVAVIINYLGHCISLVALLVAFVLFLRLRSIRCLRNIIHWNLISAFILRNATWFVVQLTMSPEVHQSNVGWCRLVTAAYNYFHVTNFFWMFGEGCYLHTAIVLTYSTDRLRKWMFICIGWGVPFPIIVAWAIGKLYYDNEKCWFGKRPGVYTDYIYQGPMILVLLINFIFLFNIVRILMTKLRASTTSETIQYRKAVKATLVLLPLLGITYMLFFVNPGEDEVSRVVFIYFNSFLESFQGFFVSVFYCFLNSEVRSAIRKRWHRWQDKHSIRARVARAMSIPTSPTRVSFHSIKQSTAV
Test: CRF receptor binding activity (radioligand displacement, Example 25)
Source text: The effectiveness of a compound as a CRF receptor antagonist may be determined by various assay methods. […] CRF receptor affinity may be determined by binding studies that measure the ability of a compound to inhibit the binding of a radiolabeled CRF (e.g., [^125I]tyrosine-CFR) to its receptor (e.g., receptors prepared from rat cerebral cortex membranes). The radioligand binding assay described by DeSouza et al. (supra, 1987) provides an assay for determining a compound's affinity for the CRF receptor.
[formula] where L=radioligand and KD=affinity of radioligand for receptor (Cheng and Prusoff, Biochem. Pharmacol. 22:3099, 1973).
By utilizing radiolabeled CRF ligands, the assay may be used to evaluate the binding activity of the compounds of the present invention with any CRF receptor subtype.
Briefly, the binding assay involves the displacement of a radiolabeled CRF ligand from the CRF receptor. More specifically, the binding assay is performed in 96-well assay plates using 1-10 μg cell membranes from cells stably transfected with human CRF receptors. […] The mixture is incubated for 2 hours at 22° C. followed by separation of the bound and free radioligand by rapid filtration over glass fiber filters. Following three washes, the filters are dried and radioactivity (Auger electrons from ^125I) is counted using a scintillation counter. All radioligand binding data may be analyzed using the non-linear least-squares curve-fitting programs Prism (GraphPad Software Inc) or XLfit (ID Business Solutions Ltd).

[1] = displacement of [125I] tyrosine-sauvagine from membranes of cells stably transfected with human CRF receptors, less than 0.10 μM (i.e., 100 nM), read-out: Ki (CRF receptor binding affinity)

A Ki of under 0.1 µM was found for `CCC(Nc1cc(C)nc2c(-c3ccc(OC)cc3C)c(C)nn12)c1nnc(C)o1` (centres unmarked) [Example 22-1, [3-(4-Methoxy-2-methyl-phenyl)-2,5-dimethyl-pyrazolo[1,5-a]pyrimidin-7-yl]-[1-(5-methyl-[1,3,4]oxadiazol-2-yl)-propyl]-amine] in this work.

A Ki [1] of under 0.1 µM was found for `COc1ccc(-c2c(C)nn3c(N[C@H](C)Cc4noc(C5CC5)n4)cc(C)nc23)c(C)c1` [Example 18-1, [(R)-2-(5-Cyclopropyl-[1,2,4]oxadiazol-3-yl)-1-methyl-ethyl]-[3-(4-methoxy-2-methyl-phenyl)-2,5-dimethyl-pyrazolo[1,5-a]pyrimidin-7-yl]-amine] in this work.

A Ki [1] of under 0.1 µM was found for `COc1ccc(-c2c(C)nn3c(N(Cc4ccccc4)Cc4nc(C)no4)cc(C)nc23)c(C)c1` [Example 12-2, Benzyl-[3-(4-methoxy-2-methyl-phenyl)-2,5-dimethyl-pyrazolo[1,5-a]pyrimidin-7-yl]-(3-methyl-[1,2,4]oxadiazol-5-ylmethyl)-amine] in this work.

A Ki [1] of under 0.1 µM was found for `CCC(Nc1cc(C)nc2c(-c3ccc(OC)cc3C)c(C)nn12)c1nc(C(C)C)no1` (centres unmarked) [Example 11-4, [1-(3-Isopropyl-[1,2,4]oxadiazol-5-yl)-propyl]-[3-(4-methoxy-2-methyl-phenyl)-2,5-dimethyl-pyrazolo[1,5-a]pyrimidin-7-yl]-amine] in this work.

A Ki [1] of under 0.1 µM was found for `CCC(Nc1cc(C)nc2c(-c3ccc(OC)cc3C)c(C)nn12)c1nc(C2CC2)no1` (centres unmarked) [Example 11-1, [1-(3-Cyclopropyl-[1,2,4]oxadiazol-5-yl)-propyl]-[3-(4-methoxy-2-methyl-phenyl)-2,5-dimethyl-pyrazolo[1,5-a]pyrimidin-7-yl]-amine] in this work.

A Ki [1] of under 0.1 µM was found for `CCC(Nc1cc(C)nc2c(-c3ccc(Cl)cc3C)c(C)nn12)c1nc(C)no1` (centres unmarked) [Example 24-4, [3-(4-Chloro-2-methyl-phenyl)-2,5-dimethyl-pyrazolo[1,5-a]pyrimidin-7-yl]-[1-(3-methyl-[1,2,4]oxadiazol-5-yl)-propyl]-amine] in this work.

A Ki [1] of under 0.1 µM was found for `COc1ccc(-c2c(C)nn3c(NC(C)Cc4nc(C(F)(F)F)no4)cc(C)nc23)c(C)c1` (centres unmarked) [Example 13-3, [3-(4-Methoxy-2-methyl-phenyl)-2,5-dimethyl-pyrazolo[1,5-a]pyrimidin-7-yl]-[1-methyl-2-(3-trifluoromethyl-[1,2,4]oxadiazol-5-yl)-ethyl]-amine] in this work.

A Ki [1] of under 0.1 µM was found for `COc1ccc(-c2c(C)nn3c(N[C@@H](Cc4nc(C)no4)C(F)(F)F)cc(C)nc23)c(C)c1` [Example 13-2, [3-(4-Methoxy-2-methyl-phenyl)-2,5-dimethyl-pyrazolo[1,5-a]pyrimidin-7-yl]-[2,2,2-trifluoro-(S)-1-(3-methyl-[1,2,4]oxadiazol-5-ylmethyl)-ethyl]-amine] in this work.

A Ki [1] of under 0.1 µM was found for `CCC(Nc1cc(C)nc2c(-c3ccc(OC)cc3Cl)c(C)nn12)c1nc(C)no1` (centres unmarked) [Example 24-1, [3-(2-Chloro-4-methoxy-phenyl)-2,5-dimethyl-pyrazolo[1,5-a]pyrimidin-7-yl]-[1-(3-methyl-[1,2,4]oxadiazol-5-yl)-propyl]-amine] in this work.

A Ki [1] of under 0.1 µM was found for `COc1ccc(-c2c(C)nn3c(NC(C)Cc4nc(C(C)C)no4)cc(C)nc23)c(C)c1` (centres unmarked) [Example 12-5, [2-(3-Isopropyl-[1,2,4]oxadiazol-5-yl)-1-methyl-ethyl]-[3-(4-methoxy-2-methyl-phenyl)-2,5-dimethyl-pyrazolo[1,5-a]pyrimidin-7-yl]-amine] in this work.

A Ki [1] of under 0.1 µM was found for `CCC(Nc1cc(C)nc2c(-c3ccc(Cl)cc3OC)c(C)nn12)c1nc(C)no1` (centres unmarked) [Example 24-2, [3-(4-Chloro-2-methoxy-phenyl)-2,5-dimethyl-pyrazolo[1,5-a]pyrimidin-7-yl]-[1-(3-methyl-[1,2,4]oxadiazol-5-yl)-propyl]-amine] in this work.

A Ki [1] of under 0.1 µM was found for `COc1ccc(-c2c(C)nn3c(NC(C)Cc4nnc(C(F)(F)F)o4)cc(C)nc23)c(C)c1` (centres unmarked) [Example 23-2, [3-(4-Methoxy-2-methyl-phenyl)-2,5-dimethyl-pyrazolo[1,5-a]pyrimidin-7-yl]-[1-methyl-2-(5-trifluoromethyl-[1,3,4]oxadiazol-2-yl)-ethyl]-amine] in this work.

A Ki [1] of under 0.1 µM was found for `CCC(Cc1nc(C2CC2)no1)Nc1cc(C)nc2c(-c3ccc(OC)cc3OC)c(C)nn12` (centres unmarked) [Example 12-10, [1-(3-Cyclopropyl-[1,2,4]oxadiazol-5-ylmethyl)-propyl]-[3-(2,4-dimethoxy-phenyl)-2,5-dimethyl-pyrazolo[1,5-a]pyrimidin-7-yl]-amine] in this work.

A Ki [1] of under 0.1 µM was found for `COc1ccc(-c2c(C)nn3c(N[C@H](C)Cc4nc(C(F)(F)F)no4)cc(C)nc23)c(OC)c1` [Example 13-7, [3-(2,4-Dimethoxy-phenyl)-2,5-dimethyl-pyrazolo[1,5-a]pyrimidin-7-yl]-[(R)-1-methyl-2-(3-trifluoromethyl-[1,2,4]oxadiazol-5-yl)-ethyl]-amine] in this work.
